Active and inactive are the calls of the source. The calls are words filed in the database; no cut-off is given here.
Key:
Rattus norvegicus [1] = experiment: Antiinflammatory activity against carrageenan-induced paw edema in rat at dose equimolar to 10 mg/kg aspirin, po administered 1 hr before carrageenan challenge measured after 6 hrs by plethysmometer; assay type: functional
Rattus norvegicus [2] = experiment: Gastrointestinal toxicity in rat assessed as ulcerogenic index at 100 mg/kg, po after 3 hrs; assay type: organism-based; set-up: dose 100 mg/kg, route oral; conditions: in vivo
Rattus norvegicus [3] = experiment: Antiinflammatory activity against carrageenan-induced paw edema in rat at 10 mg/kg, po administered 1 hr before carrageenan challenge measured after 4 hrs by plethysmometer; assay type: functional
[4] = AUC in rat at 10 mg/kg, po; assay type: ADME, organism-based; set-up: dose 10 mg/kg, route oral; conditions: plasma
Rattus norvegicus [5] = experiment: Antiinflammatory activity against carrageenan-induced paw edema in rat at 10 mg/kg, po administered 1 hr before carrageenan challenge measured after 6 hrs by plethysmometer; assay type: functional
Rattus norvegicus [6] = experiment: AUC in rat at po dose of equimolar to aspirin; assay type: ADME, organism-based, Plasma; conditions: in vivo
Rattus norvegicus [7] = experiment: Gastrointestinal toxicity in rat assessed as ulcerogenic index at dose equimolar to 100 mg/kg of diclofenac, po after 5 hrs; assay type: organism-based; set-up: dose 100 mg/kg, route oral; conditions: in vivo
Rattus norvegicus [8] = experiment: Gastrointestinal toxicity in rat assessed as ulcerogenic index at dose equimolar to 100 mg/kg of aspirin, po after 3 hrs; assay type: organism-based; set-up: dose 100 mg/kg, route oral; conditions: in vivo
Rattus norvegicus [9] = experiment: Effect on nitric oxide release in rat assessed as plasma nitrate/nitrite concentration at dose equimolar to 10 mg/kg of diclofenac, po by Griess method; assay type: functional, organism-based; set-up: dose 10 mg/kg
Rattus norvegicus [10] = experiment: Antiinflammatory activity against carrageenan-induced paw edema in rat at dose equimolar to 150 mg/kg aspirin, po administered 1 hr before carrageenan challenge measured after 6 hrs by plethysmometer; assay type: functional
Rattus norvegicus [11] = experiment: Antiinflammatory activity against carrageenan-induced paw edema in rat at dose equimolar to 150 mg/kg aspirin, po administered 1 hr before carrageenan challenge measured after 4 hrs by plethysmometer; assay type: functional; conditions: at 150 mg/kg
Rattus norvegicus [12] = experiment: Antiinflammatory activity against carrageenan-induced paw edema in rat at 150 mg/kg, po administered 1 hr before carrageenan challenge measured after 6 hrs by plethysmometer; assay type: functional
Rattus norvegicus [13] = experiment: Antiinflammatory activity against carrageenan-induced paw edema in rat at 150 mg/kg, po administered 1 hr before carrageenan challenge measured after 4 hrs by plethysmometer; assay type: functional
Rattus norvegicus [14] = experiment: AUC in rat at 35 mg/kg, po; assay type: ADME, organism-based, Plasma; set-up: dose 35 mg/kg, route oral; conditions: in vivo
[15] = AUC in rat at 150 mg/kg, po; assay type: ADME, organism-based; set-up: dose 150 mg/kg, route oral; conditions: plasma
Rattus norvegicus [16] = experiment: Gastrointestinal toxicity in rat assessed as ulcerogenic index at 100 mg/kg, po after 5 hrs; assay type: organism-based; set-up: dose 100 mg/kg, route oral; conditions: in vivo

O=C(COC(=O)Cc1ccccc1Nc1c(Cl)cccc1Cl)OCCSSCCO[N+](=O)[O-]
Activity (Rattus norvegicus [1]): inactive

O=C(O)Cc1ccccc1Nc1c(Cl)cccc1Cl [DICLOFENAC]
UI (Rattus norvegicus [2]): 108 mm2 | Activity (Rattus norvegicus [3]): 55% | AUC [4]: 65 µg·h/mL | inhibition in vivo at 10 mg/kg (Rattus norvegicus [5]): 21%

CC(=O)Oc1ccccc1C(=O)OCCSSCCO[N+](=O)[O-]
AUC (Rattus norvegicus [6]): 749 ug/hr.ml | UI (Rattus norvegicus [7]): 0 mm2

O=C(Cc1ccccc1Nc1c(Cl)cccc1Cl)OCCSSCCO[N+](=O)[O-]
UI (Rattus norvegicus [8]): 0 mm2 | Activity (Rattus norvegicus [9]): Active

CC(=O)Oc1ccccc1C(=O)OCC(=O)OCCSSCCO[N+](=O)[O-]
Activity (Rattus norvegicus [10]): inactive | inhibition (Rattus norvegicus [11]): inactive

CC(=O)Oc1ccccc1C(=O)O [ASPIRIN]
inhibition in vivo at 150 mg/kg (Rattus norvegicus [12]): 31% | inhibition in vivo at 150 mg/kg (Rattus norvegicus [13]): 30% | AUC (Rattus norvegicus [14]): 909 ug/hr.ml | AUC [15]: 4050 µg·h/mL | UI (Rattus norvegicus [16]): 99 mm2

Reference: ChEMBL document CHEMBL1155994, “NO-NSAIDs: Gastric-sparing nitric oxide-releasable prodrugs of non-steroidal anti-inflammatory drugs” (Bioorg Med Chem Lett, 2009)
